Series [1] has as its target T1, hROMK (human Kir1.1) (Homo sapiens (Human), UniProt P48048). In words: cell-based. As to conditions: CHO T-Rex hROMK stable cell line; thallium flux; 10-point concentration response curve; read-out: Human ROMK Th Flux IC50.
Series [2] has as its target T1, hROMK (human Kir1.1). In words: cell-based. It is filed as cell-based. To be noted: whole-cell manual patch clamp, CHO T-Rex hROMK stable cell line, voltage step to -120 mV, Ba2+-subtracted hROMK current; read-out: ROMK EP IC50. Background: Patch clamp records ionic current or voltage across a cell membrane.
Description: ROMK Manual Patch Clamp Assay
Cell culture conditions: Cells were maintained in conditions similar to those for Thallium flux assay. hROMK channel expression was induced by adding 0.6 μg/ml of Doxycycline 16-24 hrs prior to the experiments. On the day of experiment, the cells were dissociated using Versene, resuspended in growth media and plated onto coverslips 15 minutes prior to use.
Electrophysiology: The coverslip plated with cells was placed in the experiment chamber perfused with bath solution composed of (in mM): 135 NaCl, 5 KCl, 2 CaCl2, 1 MgCl2, 10 HEPES, 5 Glucose (pH 7.4). Patch pipettes with resistance between 2-5 Megaohms, when filled with a solution containing (in mM): 135 KCl, 1 EGTA, 1 MgCl2, 10 HEPES, 2 Na2ATP (pH 7.3), were used to form gigaseals. The cells were voltage clamped at −75 mV in whole-cell configuration using an Axopatch 200b or Multiclamp 700b (Molecular Devices) amplifier controlled by pClamp Software (Molecular Devices). The current was recorded by applying a voltage step to −120 mV every 10 seconds. […] At the end of the experiment, the cells were perfused with bath solution containing 2 mM Ba^2+ to isolate the contribution of hROMK current.
Data analysis: Raw current values (5 traces each for control, different compound concentration and Ba^2+ treatment groups) were exported from Clampfit into Microsoft Excel where the current remaining after application of Ba^2+ was subtracted from raw current to obtain hROMK specific current.
Series [3] has as its target hERG channels (Homo sapiens (Human), UniProt Q12809). Nature of the series: hERG Manual Patch Clamp Assay. The class given is cell-based. To be noted: human, HEK 293 cells stably expressing hERG channels, pH 7.4, 1 uM, read-out: hERG EP % Inh @ 1 uM. (The hERG channel carries a current that helps repolarise heart muscle cells.)

Structures are written as SMILES. Like-named read-outs stand apart in the source and are kept apart here.

The IC50 is the midpoint of a concentration-inhibition curve.

hERG channels, sequence (Q12809 whole entry): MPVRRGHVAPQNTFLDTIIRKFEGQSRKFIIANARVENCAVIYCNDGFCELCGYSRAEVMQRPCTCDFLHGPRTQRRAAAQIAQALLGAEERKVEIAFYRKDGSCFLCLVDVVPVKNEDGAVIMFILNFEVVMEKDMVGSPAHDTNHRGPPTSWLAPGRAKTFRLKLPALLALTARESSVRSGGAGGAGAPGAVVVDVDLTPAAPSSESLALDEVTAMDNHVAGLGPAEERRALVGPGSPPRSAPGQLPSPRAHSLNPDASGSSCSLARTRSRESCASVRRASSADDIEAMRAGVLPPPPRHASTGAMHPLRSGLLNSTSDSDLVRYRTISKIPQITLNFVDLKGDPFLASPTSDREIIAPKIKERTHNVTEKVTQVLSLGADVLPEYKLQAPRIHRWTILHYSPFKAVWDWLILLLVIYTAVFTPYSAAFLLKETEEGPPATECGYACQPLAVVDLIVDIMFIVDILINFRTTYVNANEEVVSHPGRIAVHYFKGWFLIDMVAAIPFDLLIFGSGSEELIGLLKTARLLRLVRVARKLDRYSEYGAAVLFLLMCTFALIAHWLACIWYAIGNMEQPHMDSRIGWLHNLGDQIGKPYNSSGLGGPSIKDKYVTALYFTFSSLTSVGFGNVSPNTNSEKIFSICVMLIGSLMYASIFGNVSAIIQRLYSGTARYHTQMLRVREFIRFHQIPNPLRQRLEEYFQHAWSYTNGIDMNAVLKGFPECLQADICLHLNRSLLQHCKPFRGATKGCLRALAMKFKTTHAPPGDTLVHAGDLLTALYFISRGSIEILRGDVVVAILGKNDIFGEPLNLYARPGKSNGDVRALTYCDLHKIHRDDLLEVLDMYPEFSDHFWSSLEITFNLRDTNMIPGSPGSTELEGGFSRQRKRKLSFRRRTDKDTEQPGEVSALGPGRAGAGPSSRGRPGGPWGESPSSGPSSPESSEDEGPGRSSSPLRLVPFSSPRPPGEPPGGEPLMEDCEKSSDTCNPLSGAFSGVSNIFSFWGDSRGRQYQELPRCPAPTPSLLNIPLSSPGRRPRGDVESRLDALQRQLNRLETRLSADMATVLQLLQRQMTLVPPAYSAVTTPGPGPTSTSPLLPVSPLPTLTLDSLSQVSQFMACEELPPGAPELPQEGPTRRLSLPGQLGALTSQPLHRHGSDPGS
T1 sequence (P48048 whole entry): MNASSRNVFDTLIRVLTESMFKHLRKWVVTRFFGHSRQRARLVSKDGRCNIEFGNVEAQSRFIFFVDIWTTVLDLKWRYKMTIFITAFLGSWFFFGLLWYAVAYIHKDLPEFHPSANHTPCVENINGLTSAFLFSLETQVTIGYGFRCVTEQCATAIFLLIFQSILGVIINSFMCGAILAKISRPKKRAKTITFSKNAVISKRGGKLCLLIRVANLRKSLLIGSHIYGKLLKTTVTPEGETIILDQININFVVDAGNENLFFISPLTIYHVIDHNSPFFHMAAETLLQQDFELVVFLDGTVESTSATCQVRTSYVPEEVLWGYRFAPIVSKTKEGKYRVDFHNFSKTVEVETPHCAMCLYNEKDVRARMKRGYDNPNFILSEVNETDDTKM

In the case of `Cc1cc(-n2ncc(C(C)N3CCN[C@H](c4ccc5c(c4C)COC5=O)C3)n2)ncc1C#N` (single isomer, unassigned) [Example 121-I], the IC50 in series [1] is 31 nM; in series [2], 740 nM. The inhibition at 1 µM in series [3] came to 10%.
With `Cc1cc(-n2nc(C)c(CN3CC(c4ccc5c(c4C)COC5=O)NC(C)(C)C3)n2)ncc1C#N` (single isomer, unassigned) [Example 175-I, 6-(4-((3,3-dimethyl-5-(4-methyl-1-oxo-1,3-dihydroisobenzofuran-5-yl)piperazin-1-yl)methyl)-5-methyl-2H-1,2,3-triazol-2-yl)-4-methylnicotinonitrile], the IC50 is 31 nM in series [1] and 17 nM in series [2]. Also, in series [3], the inhibition at 1 µM amounted to 15%.
For `COc1cc(-n2ncc(CN3CC(c4ccc5c(c4C)COC5=O)NC(C)(C)C3)n2)ncc1C#N` (single isomer, unassigned) [Example 190-I, 6-(4-((3,3-dimethyl-5-(4-methyl-1-oxo-1,3-dihydroisobenzofuran-5-yl)piperazin-1-yl)methyl)-2H-1,2,3-triazol-2-yl)-4-methoxynicotinonitrile] the same measures were 17 nM, 13 nM and 9.1%.
`Cc1cc(-n2cc(CN3CC(c4ccc5c(c4C)COC5=O)NCC3C)cn2)ncc1C#N` (single isomer, unassigned) [Example 244-II, 4-methyl-6-(4-((2-methyl-5-(4-methyl-1-oxo-1,3-dihydroisobenzofuran-5-yl)piperazin-1-yl)methyl)-1H-pyrazol-1-yl)nicotinonitrile]: the IC50 is 17 nM in series [1] and 22 nM in series [2].
`Cc1cc(-c2nnc(CN3CC(c4ccc5c(c4C)COC5=O)NC(C)(C)C3)o2)ncc1C#N` (single isomer, unassigned) [Example 267-I, 6-(5-((3,3-dimethyl-5-(4-methyl-1-oxo-1,3-dihydroisobenzofuran-5-yl)piperazin-1-yl)methyl)-1,3,4-oxadiazol-2-yl)-4-methylnicotinonitrile]: the figures for the IC50 in series [1] and in series [2] were 16 nM and 17 nM, respectively. Further, the inhibition at 1 µM in series [3] was 9.9%.
For `Cc1cc(-n2cc(CN3CCO[C@H](c4ccc5c(c4C)COC5=O)C3)cn2)ncc1C#N` [Example 1-I, (R)-4-methyl-6-(4-((2-(4-methyl-1-oxo-1,3-dihydroisobenzofuran-5-yl)morpholino)methyl)-1H-pyrazol-1-yl)nicotinonitrile] the same measures were 14 nM, 11 nM and 26%.
With `Cc1c([C@@H]2CN(Cc3ccc(-c4ccc5oc(=O)n(C)c5c4)nc3)CCO2)ccc2c1COC2=O` [Example 3-I, (R)-3-methyl-5-(5-((2-(4-methyl-1-oxo-1,3-dihydroisobenzofuran-5-yl)morpholino)methyl)pyridin-2-yl)benzo[d]oxazol-2(3H)-one], the figures for the IC50 in series [1] and in series [2] were 210 nM and 44 nM, respectively. Moreover, the inhibition at 1 µM in series [3] came out at 26%.
For `COc1cc(-n2cnc(CN3CCN[C@H](c4ccc5c(c4C)COC5=O)C3)c2)ncc1C#N` [Example 14-I, (R)-4-methoxy-6-(4-((3-(4-methyl-1-oxo-1,3-dihydroisobenzofuran-5-yl)piperazin-1-yl)methyl)-1H-imidazol-1-yl)nicotinonitrile] the same measures were 36 nM, 51 nM and 1.7%.
For `Cc1cn(-c2ccc(CN3CCO[C@H](c4ccc5c(c4C)COC5=O)C3)cn2)cn1` [Example 16-I, (R)-4-methyl-5-(4-((6-(4-methyl-1H-imidazol-1-yl)pyridin-3-yl)methyl)morpholin-2-yl)isobenzofuran-1(3H)-one] the same measures were 33 nM, 11 nM and 7.3%.
For `Cc1cc(-n2cc(CN3CCN[C@H](c4ccc5c(c4C)COC5=O)C3)nn2)ncc1C#N` [Example 23-I, (R)-4-methyl-6-(4-((3-(4-methyl-1-oxo-1,3-dihydroisobenzofuran-5-yl)piperazin-1-yl)methyl)-1H-1,2,3-triazol-1-yl)nicotinonitrile], the IC50 in series [1] is 30 nM; in series [2] it was 4.9 nM. Moreover, the inhibition at 1 µM in series [3] worked out at 12%.
For `COc1cc(-n2cc(CN3CCN[C@H](c4ccc5c(c4C)COC5=O)C3)cn2)ncc1C#N` [Example 59-I, (R)-4-methoxy-6-(4-((3-(4-methyl-1-oxo-1,3-dihydroisobenzofuran-5-yl)piperazin-1-yl)methyl)-1H-pyrazol-1-yl) nicotinonitrile] the same measures were 20 nM, 4.8 nM and 15%.
As for `Cc1c([C@@H]2CN(Cc3cn(-c4ccc5oc(=O)n(C)c5c4)nn3)CCN2)ccc2c1COC2=O` [Example 61-I, (R)-3-methyl-5-(4-((3-(4-methyl-1-oxo-1,3-dihydroisobenzofuran-5-yl)piperazin-1-yl)methyl)-1H-1,2,3-triazol-1-yl)benzo[d]oxazol-2 (3H)-one], in series [2], the IC50 came out at 40 nM.
For `Cc1c([C@@H]2CN(Cc3ccc(-n4cnc(C#N)c4)nc3)CCN2)ccc2c1COC2=O` [Example 65-I, (R)-1-(5-((3-(4-methyl-1-oxo-1,3-dihydroiso-benzofuran-5-yl)piper-azin-1-yl)methyl)pyri-din-2-yl)-1H-imidazole-4-carbonitrile], the IC50 worked out at 14 nM in series [1] and 9.8 nM in series [2]. Also, in series [3], the inhibition at 1 µM stood at 21%.
For `Cc1cn(-c2ccc(CN3CCN[C@H](c4ccc5c(c4C)COC5=O)C3)cn2)cn1` [Example 66-I, (R)-4-methyl-5-(4-((6-(4-methyl-1H-imidazol-1-yl)pyridin-3-yl)methyl)piperazin-2-yl)iso-benzofuran-1(3H)-one] the same measures were 33 nM, 4.7 nM and 0%.
For `Cc1ncn(-c2ccc(CN3CCN[C@H](c4ccc5c(c4C)COC5=O)C3)cn2)n1` [Example 67-I, (R)-4-methyl-5-(4-((6-(3-methyl-1H-1,2,4-tri-azol-1-yl)pyridin-3-yl)methyl)piperazin-2-yl) isobenzofuran-1(3H)-one] the same measures were 110 nM, 29 nM and 7.1%.
In the case of `COc1cc(-n2cnc(CN3C[C@@H](c4ccc5c(c4C)COC5=O)N[C@@H](C)C3)c2)ncc1C#N` [Example 97-I, 4-methoxy-6-(4-(((3S,5R)-3-methyl-5-(4-methyl-1-oxo-1,3-dihydroisobenzofur-an-5-yl)piperazin-1-yl)methyl)-1H-imidazol-1-yl)nicotinonitrile], the values for the IC50 in series [1] and in series [2] were 28 nM and 43 nM, respectively.
As to `Cc1cc(-n2cc(CN3C[C@@H](c4ccc5c(c4C)COC5=O)N[C@@H](C)C3)nn2)ncc1C#N` [Example 106-I, 4-methyl-6-(4-(((3S,5R)-3-methyl-5-(4-methyl-1-oxo-1,3-dihydroisobenzofur-an-5-yl)piperazin-1-yl)methyl)-1H-1,2,3-triazol-1-yl)nicotinonitrile], the IC50 in series [2] worked out at 10 nM. In addition, in series [3], the inhibition at 1 µM worked out at 0.98%.
For `Cc1c([C@@H]2CN(Cc3cnn(-c4ccc5oc(=O)n(C)c5c4)n3)C[C@H](CO)N2)ccc2c1COC2=O` [Example 109-I, 5-(4-(((3R,5R)-3-(hydroxymethyl)-5-(4-methyl-1-oxo-1,3-dihydroisobenzofur-an-5-yl)piperazin-1-yl)methyl)-2H-1,2,3-triazol-2-yl)-3-methylbenzo[d]oxa-zol-2(3H)-one] the same measures were 54 nM and 3.6%.
As to `Cc1cc(-n2cc(CN3C[C@@H](c4ccc5c(c4C)COC5=O)N[C@@H](C)C3)n(C)c2=O)ccn1` [Example 266-I, 3-methyl-4-(((3S,5R)-3-methyl-5-(4-methyl-1-oxo-1,3-dihydroisobenzofuran-5-yl)piperazin-1-yl)methyl)-1-(2-methylpyridin-4-yl)-1,3-dihydro-2H-imidazol-2-one], in series [1], the IC50 amounted to 36 nM. The inhibition at 1 µM in series [3] came out at 3.1%.
For `COc1cc(-c2cc(CN3C[C@@H](c4ccc5c(c4C)COC5=O)N[C@@H](C)C3)on2)ncc1C#N` [Example 269-I, 4-methoxy-6-(5-(((3S,5R)-3-methyl-5-(4-methyl-1-oxo-1,3-dihydroisobenzofuran-5-yl)piperazin-1-yl)methyl)isoxazol-3-yl)nicotinonitrile] the same measures were 24 nM and 9.5%.
For `COc1cc(-n2nnc(CN3CC[C@@H](O)[C@H](c4ccc5c(c4C)COC5=O)C3)n2)ccc1C#N` [Example 272-I, 4-(5-(((3R,4R)-4-hydroxy-3-(4-methyl-1-oxo-1,3-dihydroisobenzofuran-5-yl)piperidin-1-yl)methyl)-2H-tetrazol-2-yl)-2-methoxybenzonitrile] the same measures were 65 nM and 5.2%.
For `COc1cc(N2CC(CN3C[C@@H](c4ccc5c(c4C)COC5=O)N[C@@H](C)C3)N(C)C2=O)ncc1C#N` (stereo partly drawn) [Example 274-I, 4-methoxy-6-(3-methyl-4-(((3S,5R)-3-methyl-5-(4-methyl-1-oxo-1,3-dihydroisobenzofuran-5-yl)piperazin-1-yl)methyl)-2-oxoimidazolidin-1-yl)nicotinonitrile], the IC50 in series [1] is 58 nM. In addition, the inhibition at 1 µM in series [3] was 43%.
For `COc1cc(-n2cc(CN3C[C@@H](c4ccc5c(c4C)COC5=O)N[C@@H](C)C3)n(C)c2=O)ccn1` [Example 275-I, 1-(2-methoxypyridin-4-yl)-3-methyl-4-(((3S,5R)-3-methyl-5-(4-methyl-1-oxo-1,3-dihydroisobenzofuran-5-yl)piperazin-1-yl)methyl)-1,3-dihydro-2H-imidazol-2-one] the same measures were 42 nM and 8.4%.

Source of the values: patent US10501449B2 (priority 2018, dated 2019).
